Experiments:
[1] = Absorption, emission and quantum yield of probes without Aβ42 aggregates; type: physicochemical
Aβ42 aggregates [2] = target: T1, Aβ42 aggregates (Homo sapiens, UniProt P05067); test: Absorption / fluorescence response with Aβ42 fibrillar aggregates; type: binding
Aβ42 monomers = Aβ42 monomers (Homo sapiens, UniProt P05067); test: Absorption / fluorescence response with Aβ monomers; type: binding; details: QC 2 μM, Aβ monomers 10 μM
[3] = target: α-Synuclein (α-Syn) aggregates (Homo sapiens, UniProt P37840); test: Selectivity: fluorescence with α-synuclein aggregates; type: binding
[4] = target: T2, islet amyloid polypeptide (IAPP) aggregates (Homo sapiens, UniProt P10997); test: Selectivity: fluorescence with IAPP aggregates; type: binding; details: IAPP aggregates 20 μM
T2 construct: A 0.1 mg (Merck, calbiochem) sample of amylin is dissolved in 100 μL of acetonitrile; purchased Merck, calbiochem
T2 sequence (P10997 34-70 limits assumed): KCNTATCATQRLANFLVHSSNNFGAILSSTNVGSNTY

[5] = target: bovine serum albumin (BSA) (Bos taurus, UniProt P02769); test: Selectivity: fluorescence with BSA; type: binding
Sequence of bovine serum albumin (BSA) (P02769 25-607): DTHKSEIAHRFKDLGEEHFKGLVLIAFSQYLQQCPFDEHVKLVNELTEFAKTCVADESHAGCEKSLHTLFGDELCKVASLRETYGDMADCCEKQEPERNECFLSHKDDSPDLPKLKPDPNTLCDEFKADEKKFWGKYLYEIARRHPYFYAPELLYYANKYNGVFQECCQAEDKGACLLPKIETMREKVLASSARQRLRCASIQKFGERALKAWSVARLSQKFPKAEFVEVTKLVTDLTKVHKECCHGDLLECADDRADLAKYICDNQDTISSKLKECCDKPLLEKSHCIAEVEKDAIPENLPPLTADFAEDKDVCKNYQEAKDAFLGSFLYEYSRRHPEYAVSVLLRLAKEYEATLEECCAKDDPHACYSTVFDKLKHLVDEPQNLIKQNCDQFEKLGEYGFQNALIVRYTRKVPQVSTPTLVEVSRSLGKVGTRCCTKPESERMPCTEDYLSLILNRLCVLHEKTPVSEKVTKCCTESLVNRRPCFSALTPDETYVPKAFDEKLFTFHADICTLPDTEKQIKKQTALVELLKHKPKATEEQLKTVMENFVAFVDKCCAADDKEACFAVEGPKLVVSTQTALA

calf thymus DNA = test: Selectivity of QC: fluorescence with calf thymus DNA; type: binding; details: QC 2 μM, DNA 20 μM
From the text: Selective fluorescence enhancement is shown by QC probe, with strong binding affinity. Probe QC has very good lipophilicity to cross the BBB and serum stability. QC detects Aβ plaques in CSF samples of patient which can be used in early diagnosis of Alzheimer's Disease. Probe QC is a molecular rotor moiety containing an electron withdrawing group in conjugation with an electron releasing group with a freely rotatable bond. Prevention of internal rotation in QC by surrounding medium rigidity, leads to a decrease in the non-radiative decay rate and an increase in fluorescence emission. […] In presence of Aβ42 aggregates (10 μM) prepared in PBS buffer (10 mM), absorption maxima at 521 nm (λex) and a blue shifted emission maxima (10 nm) with huge (>100 fold) fluorescence enhancement ([…]=654 nm) and a large stoke shift of ˜130 nm is observed (FIG. 47). […] These peptides are known to form fibrillar aggregates similar to Aβ42 aggregates. […] No such changes are observed in case of IAPP aggregates.

Aβ42 aggregates [6] = target: T1, Aβ42 aggregates; test: Binding saturation assay (fluorescence) for binding constant; details: fluorescence saturation curve; Aβ42 aggregates 10 μM (QC) or 2 μM (TC); read-out: dissociation constant Kd
[7] = target: ThT/Aβ42 aggregate complex (Homo sapiens, UniProt P05067); test: ThT displacement / FRET assay; type: binding; details: decay at 483 nm, enhancement at 654 nm
Sequence of ThT/Aβ42 aggregate complex (P05067 672-713 limits assumed, one chain of several): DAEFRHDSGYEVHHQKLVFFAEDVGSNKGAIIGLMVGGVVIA

[8] = Partition coefficient (Log P), shake flask method; type: physicochemical; details: n-octanol/water
Protocol: Log P value is calculated by Shake flask (or tube) method. To an equilibrated solution of n-octanol and water in a separating funnel, probe QC/TC is added and agitated well. The solution is left for 30 minutes for proper separation of immiscible solvents, then the distribution of QC/TC is calculated using UV spectroscopy and the obtained concentrations are used in below equation to obtain log P value log P=log [Conc. of QC or TC in n-octanol/Conc. of QC or TC in water]

[9] = In vitro stability in human blood serum (HPLC); type: in vitro ADME; details: 60 min incubation with human blood serum at 37° C.
Protocol: The in vitro stability of QC in […] is determined by incubating QC (10 μM in H2O, 50 μM) with 300 μL of human blood serum at 37° C. for 30 and 60 min. Proteins are precipitated by adding 500 μL of acetonitrile […] at 5000 rpm for 5 min at 4° C. The supernatant is collected. Approximately 0.1 mL of the supernatant solution is analyzed using HPLC.

[10] = test system: Aβ42 aggregates expressed in S. cerevisiae (BY4741); type: cell-based
[11] = test system: α-synuclein (A30P) aggregates expressed in S. cerevisiae (BY4741); type: cell-based; details: QC 5 μM
[12] = test system: Aβ plaques in CSF samples; test: Detection of amyloid plaques in CSF samples by fluorescence; details: QC 10 μM
Protocol: In the present experiment, Amyloid plaques in the CSF sample are detected as it is a hallmark of AD using ThT and QC. […] QC (10 μM) is used to detect Aβ plaques in the same set of CSF samples, which show the same trend as Thioflavin assay and stains CSF3, CSF5, CSF6 and CSF12 samples (FIG. 57 and table 6).

[13] = cresyl violet perchlorate standard

T1 sequence (P05067 672-713 limits assumed): as the sequence (P05067 672-713 limits assumed, one chain of several) above
Sequence of Aβ42 monomers (P05067 672-713 limits assumed): as the sequence (P05067 672-713 limits assumed, one chain of several) above

CCN(CC)c1ccc2cc(/C=C/c3ccc4ccccc4[n+]3C)c(=O)oc2c1.[I-] [QC, 2-(2-(7-(diethylamino)-2-oxo-2H-chromen-3-yl)vinyl)-1-methylquinolin-1-ium Iodide]
absorption maximum in absence of Aβ42 aggregates ([1]; PBS buffer (10 mM, pH 7.4)): 516 nm | emission maximum in absence of Aβ42 aggregates ([1]; PBS buffer, very weak fluorescence): 664 nm | quantum yield, unbound [1, 13]: 0.08 | Stokes shift upon binding to Aβ42 aggregates (Aβ42 aggregates [2]): ~130 nm | blue shift of emission maxima in presence of Aβ42 aggregates (Aβ42 aggregates [2]; QC 2 μM, Aβ42 aggregates 10 μM): 10 nm | absorption maxima in presence of Aβ42 aggregates (Aβ42 aggregates [2]; QC 2 μM, Aβ42 aggregates 10 μM, PBS 10 mM): 521 nm | quantum yield after binding to Aβ42 aggregates (Aβ42 aggregates [2]; [13]): 0.36 | emission maximum in presence of Aβ42 aggregates (Aβ42 aggregates [2]; probe 2 μM): 654 nm | fluorescence enhancement in presence of Aβ42 aggregates (Aβ42 aggregates [2]; probe 2 μM, PBS buffer): > 100 fold | absorption maxima in presence of Aβ monomers (Aβ42 monomers): 521 nm | fluorescence enhancement in presence of Aβ monomers (Aβ42 monomers; λem=654 nm): ~7 fold | blue shift of λem maxima with α-Syn aggregates ([3]; QC 2 μM, α-Syn 20 μM): ~9 nm | fluorescence enhancement with α-Syn aggregates ([3]; α-Syn aggregates 20 μM): negligible enhancement in fluorescence | fluorescence enhancement with IAPP aggregates [4]: negligible enhancement in fluorescence | fluorescence enhancement with BSA ([5]; BSA 20 μM): considerable fluorescence enhancement is not observed | shift of emission with BSA ([5]; QC 2 μM): ~34 nm | λem with BSA ([5]; QC 2 μM): 616 nm | fluorescence enhancement with calf thymus DNA (calf thymus DNA): slight fluorescence enhancement | Kd (Aβ42 aggregates [6]): 82 ± 2.3 nM | displacement of ThT from ThT/Aβ42 aggregate complex [7]: effective displacement of ThT by QC | logP [8]: 2.4 | probe identified intact [9]: more than 97% | fluorescence correlation coefficient with GFP tagged Aβ42 aggregates ([10]; QC 5 μM): 83.7% | staining of S. cerevisiae expressing Aβ42 aggregates ([10]; QC 5 μM, live cells): stains S. cerevisiae expressing Aβ42 aggregates selectively | mean Pearson co-localization coefficient ([10]; live cells counted (n=50)): 0.837 | staining of S. cerevisiae strains with α-synuclein (A30P) aggregates [11]: not stained | Normalized fluorescence intensity (QC) ([12]; sample CSF1): 12.50 | Normalized fluorescence intensity (QC) ([12]; sample CSF2): 3.24 | Normalized fluorescence intensity (QC) ([12]; sample CSF3): 29.60 | Normalized fluorescence intensity (QC) ([12]; sample CSF4): 10.70 | Normalized fluorescence intensity (QC) ([12]; sample CSF5): 51.50 | Normalized fluorescence intensity (QC) ([12]; sample CSF6): 29.60 | Normalized fluorescence intensity (QC) ([12]; sample CSF7): 6.40 | Normalized fluorescence intensity (QC) ([12]; sample CSF8): 11.08 | Normalized fluorescence intensity (QC) ([12]; sample CSF9): 6.30 | Normalized fluorescence intensity (QC) ([12]; sample CSF10): 5.40 | Normalized fluorescence intensity (QC) ([12]; sample CSF11): 6.70 | Normalized fluorescence intensity (QC) ([12]; sample CSF12): 44.40 | Normalized fluorescence intensity (QC) ([12]; sample CSF13): 3.20 | Normalized fluorescence intensity (QC) ([12]; sample CSF14): 12.30
